Test system: secretion of ApoB by HepG2 cells
Experiment: ApoB secretion inhibition assay in HepG2 cells (ApoB ELISA)
Type: cell-based, human
Details: Homo sapiens, HepG2, Table 6, assay of Example 2; read-out: IC50 ApoB Assay
Experimental: The ability of the compounds of the present invention to inhibit the secretion of ApoB can be determined using the following cell-based assay, which measures the secretion of ApoB by HepG2 cells. ApoB has two possible metabolic fates: entrance into the lipoprotein assembly pathway within the lumen of the endoplasmic reticulum (ER), or degradation in the cytoplasm by the ubiquitin-dependent proteasome. The destiny of ApoB is determined by the relative availability of individual lipids, which is controlled by MTP (Davis, Biochim. Biophys. Acta, 1999, 1440, 1-31).
HepG2 cells (ATCC, HB-8065) are seeded in 96-well plates in DMEM with 10% FBS+pen/strep at a density of 1×10^5 cells/well (100 μl /well). Twenty-four hours after seeding, the plate is aspirated and the media changed to DMEM with 1% BSA and pen/strep, and the cells are serum-starved for 24 hours. After 24 hour serum-starvation, the plate is aspirated again and the cells are then treated for 24 hours with or without compound in DMEM with 1% BSA, 0.3 mM OA (OA complexed to BSA at a 2:1 ratio) and pen/strep. The final concentration of DMSO in the assay (from compound and control) is 0.1%. After 24 hour treatment, conditioned media is collected in an empty 96-well plate.
Cellular viability is measured using the cell permeable dye, AlamarBlue™. This dye undergoes electron reduction in viable cells but not dead cells. The reduced dye product gives a fluorescent signal which can be monitored with a fluorescence plate reader (excitation 545 nm and emission 575 nm). The amount of fluorescence generated in a given well is proportional to the number of viable cells. After collection, the 96-well plate is re-fed with 100 μl media (DMEM with 10% FBS) and 10 μl Alamar Blue™ per well, incubated for 2 hours and then read in a fluorescence plate reader.
ApoB secretion from HepG2 cells is quantitated by testing the conditioned media at […] using an ApoB ELISA kit (ALerCHEK) according to the manufacturer's instructions. The ELISA assay for ApoB is performed as follows: a polyclonal antibody against human ApoB (Chemicon) is diluted 1:1000 in carbonate-bicarbonate buffer and 100 μl are added to each well of a 96-well plate (NUNC). After 5 hours incubation at room temperature, the antibody solution is removed and wells are washed four times with PBS/0.05% TweenD 20 (Cayman Chemical Co.). Non-specific sites on the plastic plate are blocked by incubating wells for 1 to 1.5 hours in a solution of 0.5% BSA and 0.1% TweenD 20 made in PBS. One hundred microliters of a 1:20 dilution of growth medium from the HepG2 cells (made in 0.004% TweenD 20/1% BSA in PBS) is added to each well and incubated for 3 hours at room temperature. Wells are aspirated and washed four times (0.05% TweenD 20 in PBS) prior to adding 100 μl of a 1:1000 dilution (5 μg/ml) of the secondary antibody, mouse anti-human ApoB (Chemicon). After 2 hours incubation at room temperature, this solution is aspirated and the wells are again washed 4 times as above. One hundred microliters of peroxidase-conjugated affinity purified goat anti-mouse IgG (H+L) (Jackson ImmunoResearch Laboratories) (1:10,000 dilution in PBS/1% BSA/0.1% TweenD 20) is then added to each well and incubated for 1 hour at room temperature. After aspirating, the wells are washed 4 times as above and 50 μl of 1-step Ultra TMB ELISA reagent (Pierce) is added to each well and incubated for 5 minutes. The reaction is stopped by the addition of 50 μl of 2 NH2SO4 and absorbance of each well is read at 450 nm.

| Structure (SMILES) | IC50 [µM] |
| --- | --- |
| Cc1cccc(C(=O)NCC23CCC(C(=O)N[C@H](C(=O)N(C)C(C)C)c4ccccc4)(CC2)CC3)c1-c1ccc(C(C)(C)C)cc1 [Compound 70] | 0.0138 |
| Cc1cccc(C(=O)NCC23CCC(C(=O)N[C@H](C(=O)NCC(C)C)c4ccccc4)(CC2)CC3)c1-c1ccc(C(C)(C)C)cc1 [Compound 71] | 0.0142 |
| Cc1cccc(C(=O)NCC23CCC(C(=O)N[C@H](C(=O)N(C)CC(C)C)c4ccccc4)(CC2)CC3)c1-c1ccc(C(C)(C)C)cc1 [Compound 72] | 0.0218 |
| CCCCN(C)C(=O)[C@@H](NC(=O)C12CCC(CNC(=O)c3cccc(C)c3-c3ccc(C(C)(C)C)cc3)(CC1)CC2)c1ccccc1 [Compound 74] | 0.0198 |
| COc1cccc(C(=O)Nc2ccc3nc(C(=O)N[C@H](C(=O)N(C)Cc4ccc(F)cc4)c4ccccc4)sc3c2)c1-c1ccc(C(C)C)cc1 [Compound 76] | 0.0028 |
| COc1cccc(C(=O)Nc2ccc3nc(C(=O)N[C@H](C(=O)N(C)Cc4ccc(F)cc4)c4ccccc4)sc3c2)c1-c1ccc(C(F)(F)F)cc1 [Compound 80] | 0.0016 |
| CC(C)(C)c1ccc(-c2ccccc2C(=O)Nc2nc(-c3ccc(C(=O)N[C@H](C(=O)NCC4CC4)c4ccccc4)cc3)cs2)cc1 [Compound 81] | 0.0611 |
| CC(C)CNC(=O)[C@@H](NC(=O)c1ccc(-c2csc(NC(=O)c3ccccc3-c3ccc(C(C)(C)C)cc3)n2)cc1)c1ccccc1 [Compound 82] | 0.197 |
| Cc1cccc(C(=O)Nc2nc(-c3ccc(C(=O)N[C@H](C(=O)N(C)CC(C)C)c4ccccc4)cc3)cs2)c1-c1ccc(C(C)(C)C)cc1 [Compound 87] | 0.339 |
| CCCN(C)C(=O)[C@@H](NC(=O)c1ccc(-c2csc(NC(=O)c3cccc(C)c3-c3ccc(C(C)(C)C)cc3)n2)cc1)c1ccccc1 [Compound 88] | 0.0813 |
| Cc1cccc(C(=O)Nc2nc(-c3ccc(C(=O)N[C@H](C(=O)N4CCCC4)c4ccccc4)cc3)cs2)c1-c1ccc(C(C)C)cc1 [Compound 89] | 0.0088 |
| Cc1cccc(C(=O)Nc2nc(-c3ccc(C(=O)N[C@H](C(=O)N(C)CC(C)C)c4ccccc4)cc3)cs2)c1-c1ccc(C(C)C)cc1 [Compound 90] | 0.115 |
| CC(C)CN(C)C(=O)[C@@H](NC(=O)c1ccc(-c2csc(NC(=O)c3ccccc3-c3ccc(C(C)(C)C)cc3)n2)cc1)c1ccccc1 [Compound 91] | 0.421 |
| CCCN(C)C(=O)[C@@H](NC(=O)c1ccc(-c2csc(NC(=O)c3ccccc3-c3ccc(C(C)(C)C)cc3)n2)cc1)c1ccccc1 [Compound 92] | 0.11 |
| CC(C)N(C)C(=O)[C@@H](NC(=O)c1ccc(-c2csc(NC(=O)c3ccccc3-c3ccc(C(C)(C)C)cc3)n2)cc1)c1ccccc1 [Compound 93] | 0.0897 |
| CC(C)c1ccc(-c2ccccc2C(=O)Nc2nc(-c3ccc(C(=O)N[C@H](C(=O)N4CCCC4)c4ccccc4)cc3)cs2)cc1 [Compound 94] | 0.0185 |
| CCCN(C)C(=O)[C@@H](NC(=O)c1ccc(-c2csc(NC(=O)c3ccccc3-c3ccc(C(C)C)cc3)n2)cc1)c1ccccc1 [Compound 95] | 0.228 |
| Cc1cccc(C(=O)NCC23CCC(C(=O)NC(C(=O)N4CCCC4)c4ccccc4)(CC2)CC3)c1-c1ccc(C(C)C)cc1 (centres unmarked) [Compound 96] | 0.011 |
| CCCN(C)C(=O)[C@@H](NC(=O)c1ccc(-c2csc(NC(=O)c3cccc(C)c3-c3ccc(C(C)C)cc3)n2)cc1)c1ccccc1 [Compound 97] | 0.143 |
| Cc1cccc(C(=O)Nc2nc(-c3ccc(C(=O)N[C@H](C(=O)N(C)C(C)C)c4ccccc4)cc3)cs2)c1-c1ccc(C(C)C)cc1 [Compound 98] | 0.0497 |
| CC(C)c1ccc(-c2ccccc2C(=O)Nc2nc(-c3ccc(C(=O)N[C@H](C(=O)N(C)C(C)C)c4ccccc4)cc3)cs2)cc1 [Compound 99] | 0.121 |
| CC(C)(C)c1csc(-c2ccccc2C(=O)NCC23CCC(C(=O)N[C@H](C(=O)N4CCCC4)c4ccccc4)(CC2)CC3)n1 [Compound 100] | 0.112 |
| CCCCN(C)C(=O)[C@@H](NC(=O)C12CCC(NC(=O)c3ccccc3-c3ccc(C(C)(C)C)cc3)(CC1)CC2)c1ccccc1 [Compound 101] | 0.0117 |
